Measured values as given in patent US12629379B2, “Pharmaceutical composition for preventing, suppressing, or treating symptom associated with allergic reaction” (Nippon Chemiphar Co., Ltd., priority 2020, dated 2026).

What was measured:
[1] = tested on: IgE-sensitized bone marrow-derived mast cells (BMMCs); experiment: Degranulation reaction (β-hexosaminidase release rate) of IgE-sensitized BMMCs costimulated with DNP-HSA and ATP; format: cell-based, mice; settings: for β-hexosaminidase release rate compared to the control BMMCs / β-hexosaminidase release rate compared to the control BMMCs (dose dependence): group (4): costimulation with ATP and DNP-HSA (10 ng/ml); for β-hexosaminidase release rate compared to the control BMMCs (dose dependence): preincubation with compound 1, 3, 10 μM
Procedure: (§1) The degranulation reaction was performed by obtaining a degranulation rate using a β-hexosaminidase release rate as an index. The β-hexosaminidase release rate was measured as in the section (Degranulation Experiment) below.
Bone marrow was collected from femora of male C57BL/6J mice (7 to 8 weeks old, produced by Japan SLC, Inc). Red blood cells were hemolyzed, and culture was performed in a medium containing 10% fetal bovine serum (FBS), penicillin (100 unit/ml), streptomycin (100 μg/ml), and recombinant mouse IL-3 (10 ng/ml, manufactured by PeproTech, Inc.) for 14 days. Stem cell factor (SCF) (10 ng/ml) was added to the medium from Day 15, and the culture was performed for 35 to 42 days to be used for the experiment. Whether the cells were differentiated into mast cells was confirmed by the degrees the of c-KIT and FcεRI expressions. The confirmation was performed by using FACSCant II (manufactured by BD Biosciences).
(§2) Anti-DNP-IgE antibody (clone: SPE-7, manufactured by Sigma-Aldrich, Inc.) was added to the BMMC culture solution so that the concentration reached 50 ng/ml, and the BMMCs were sensitized overnight. To be used in the experiment, the BMMCs were washed with PBS(−) and suspended in Krebs Ringer-HEPES Buffer (NaCl 130 mM, KCl 4.7 mM, NaHCO34.0 mM, KH2P4 1.2 mM, Glucose 11.5 mM, HEPES 10 mM, and CaCl2·H2O 1.8 mM) so that the concentration reached 1×10^6 cell/ml.
Then, the BMMCs were each set up into the following 4 groups. • (1) A group in which nothing was added to the BMMCs, • (2) a group in which only ATP was added to the BMMCs, • (3) a group in which only DNP-HSA (10 ng/ml) was added to the BMMCs as an antigen, and • (4) a group in which a mixed solution of ATP and DNP-HSA (10 ng/ml) was added to the BMMCs at once.
Each of the 4 groups was stimulated at 37° C. for 5 minutes and rapidly cooled on ice, and then centrifugation was performed to stop the reaction. After collecting the supernatant, precipitated cells were lysed with 0.1% triton X-100. The supernatant and the cell lysis solution (50 μL) were mixed with 10 mM 4-Nitrophenyl N-acetyl-p-D-glucosaminide (manufactured by Sigma-Aldrich, Inc.) which was a β-hexosaminidase substrate/50 mM citrate buffer (pH 4.5, 50 μL), and the mixture was incubated at 37° C. for 30 minutes. 50 mM carbonate buffer (pH 10.0, 100 μL) was added to stop the reaction, and absorbance was measured at 405/655 using an absorbance microplate reader Sunrise (manufactured by Tecan Trading AG). The β-hexosaminidase release rate was obtained from the following formula. β-hexosaminidase release rate=Absorbance of supernatant/(Absorbance of supernatant+absorbance of cell lysis station)×100
Note that, in the present Example, the numbers of specimens were all n=3, and the significant differences in the present Example are indicated with “*” or “**” in FIGS. 1 and 2, “*” indicating P<0.05, and “**” P<0.01. In addition, “*” or “**” in FIGS. 1 and 2 each indicate that there was a significant difference as a result of comparison with the control in the same group.

PSA model mice = experiment: Passive systemic anaphylaxis (PSA) in IgE-sensitized mice, body temperature change; format: in vivo; settings: for body temperature decrease-suppressing effect: 10 mg/kg intraperitoneally before tail vein DNP-HSA, vs vehicle group
Procedure: The mice were sensitized by tail vein administration of 10 μg/200 μL IgE (physiological saline) under anesthesia.
Male C57BL/6J mice (7 to 8 or 10 to 11 weeks old, produced by Japan SLC, Inc) were used as the mice.
The DNP-HSA administration was arranged to be performed 24 hours after the preparation of the IgE-sensitized mice.
Moreover, with the rest of the IgE-sensitized mice, a group administered with physiological saline as a control for Compound A (vehicle group) and a group administered with the solvent B as a control for Compound B (vehicle group) were prepared.
PSA model mice were prepared, and anaphylaxis was induced by tail vein administration of 100 ng/200 μL (physiological saline) DNP-HSA to unanesthetized mice 24 hours after the preparation of the IgE-sensitized mice.
Inducing systemic anaphylaxis causes a rapid decrease in the body temperatures of the PSA model mice.
The measurement of the body temperature change was performed by measuring, with BAT-7001H Thermometer (Physitemp Instruments, LLC.), the rectal temperatures every 5 minutes from 0 minutes to 60 minutes after the administration, the 0 minutes being defined as the time of the DNP-HSA administration.

PCA model mice = experiment: Passive cutaneous anaphylaxis (PCA) in IgE-sensitized mice, Evans blue in the auricle; format: in vivo
Procedure: The mice were sensitized by subcutaneously administering 100 ng/20 μL IgE into the right ears under anesthesia. Only physiological saline was administered into the left ears.
Male C57BL/6J mice (10 to 11 weeks old, produced by Japan SLC, Inc) were used as the mice.
Note that the DNP-HSA administration was performed by tail vein administration and was arranged to be performed 24 hours after the preparation of the IgE-sensitized mice.
Note that the concentration of 65% Kolliphor EL was prepared using ethanol and a small amount of sterile water for injection (or water). In addition, the DNP-HSA administration was arranged to be performed 24 hours after the preparation of the IgE-sensitized mice.
Moreover, with the rest of the IgE-sensitized mice, a group administered with physiological saline as a control for Compound A (vehicle group) and a group administered with the solvent B as a control for Compound B (vehicle group) were prepared. […]
The PCA model mice were euthanized 30 minutes after the DNP-HSA administration, the auricles were collected, and the weights of the auricles were measured. […] Absorbance (620 nm) of the extracted Evans blue and the calibration curve was measured using the absorbance microplate reader Sunrise (Tecan Trading AG), and the concentrations were calculated.

IgE-sensitized BMMCs = experiment: Degranulation reaction (β-hexosaminidase release rate) of IgE-sensitized BMMCs costimulated with PGE2 and ATP; format: cell-based, mice
Procedure: as §1
Setting up of BMMCs was performed according to the method described in Example 2.
as §2, with “NaHCO3 4.0” for “NaHCO34.0”
Then, the BMMCs were each set up into the following 6 groups. Note that the numbers in the parentheses below match the numbers in parentheses in FIG. 6. • (1) A group in which nothing was added to the BMMCs, • (2) a group in which only ATP was added to the BMMCs, • (3) a group in which only PGE2 (1 μM) was added to the BMMCs, • (4) a group in which a mixed solution of ATP and PGE2 (1 μM) was added to the BMMCs at once, • (5) a group in which only DNP-HSA (10 ng/ml) was added to the BMMCs as an antigen, and • (6) a group in which a mixed solution of ATP and DNP-HSA (10 ng/ml) was added to the BMMCs at once.
Each of the 6 groups was stimulated at 37° C. for 5 minutes and rapidly cooled on ice, and then centrifugation was performed to stop the reaction. After collecting the supernatant, precipitated cells were lysed with 0.1% triton X-100. […] 50 mM carbonate buffer (pH 10.0, 100 μL) was added to stop the reaction, and absorbance was measured at 405/655 using an absorbance microplate reader Sunrise (manufactured by Tecan Trading AG). The β-hexosaminidase release rate was obtained from the following formula. β-hexosaminidase release rate=Absorbance of supernatant/(Absorbance of supernatant+absorbance of cell lysis station)×100 (Test Result) […]

BMMCs = experiment: IL-6, IL-13 and TNF-α release by stimulated BMMCs (ELISA); format: cell-based, mice; settings: 10 μM, pretreatment 5 minutes; stimulation 3 hours
Procedure: BMMCs were washed with a fresh culture solution and subjected to reactions in the presence and absence of a stimulating agent (100 μM ATP, 1 μM PGE2, 100 μM ATP+1 μM PGE2) for 3 hours.
The grouping is as shown below and matches the numbers in parentheses indicated in FIGS. 7 to 9. • (1) A group in which nothing was added to the BMMCs, • (2) a group in which only ATP was added to the BMMCs, • (3) a group in which only PGE2 was added to the BMMCs, and • (4) a group in which a mixed solution of ATP and PGE2 was added to the BMMCs at once.
Cytokines released into the reaction solution (interleukin (IL)-6, IL-13, and TNF-α) were measured using ELISA kits (Invitrogen Corporation).

[2] = 10 mg/kg intraperitoneally 30 minutes before DNP-HSA

Row | SMILES | β-hexosaminidase release rate compared to the control BMMCs ([1]; concentrations of 3 μM and 10 μM) | β-hexosaminidase release rate compared to the control BMMCs (dose dependence) [1] | body temperature decrease-suppressing effect (PSA model mice) | increase in Evans Blue per auricle weight (PCA model mice; 10 mg/kg intraperitoneally 1 hour before tail vein DNP-HSA, vs vehicle group) | increase in Evans Blue per auricle weight (PCA model mice; 10 mg/kg orally administered, not shown in the drawing) | β-hexosaminidase release rate compared to the control BMMCs (IgE-sensitized BMMCs; group (4): costimulation with ATP (0.1 mM) and PGE2 (1 μM), all concentrations of 1 μM, 3 μM, and 10 μM) | β-hexosaminidase release rate compared to the control BMMCs (dose dependence) (IgE-sensitized BMMCs; group (4): costimulation with ATP (0.1 mM) and PGE2 (1 μM), preincubation with compound 1, 3, 10 μM) | β-hexosaminidase release rate (IgE-sensitized BMMCs; groups (1) to (3) not subjected to costimulation with ATP (0.1 mM) and PGE2, compound 1, 3 or 10 μM) | β-hexosaminidase release rate compared to the control BMMCs ([1]; all concentrations of 1 μM, 3 μM, and 10 μM) | β-hexosaminidase release rate ([1]; groups (1) to (3) not subjected to costimulation with ATP and DNP-HSA (10 ng/ml), compound 1, 3 or 10 μM) | persistence of the body temperature decrease-suppressing effect (PSA model mice; [2]) [min] | time over which there was a significant difference in the body temperature decrease-suppressing effect (PSA model mice; [2]) | ATP-induced increase in IL-6 release (BMMCs) | ATP-induced increase in IL-13 release (BMMCs) | ATP-induced increase in TNF-α release (BMMCs)
1 | O=C1CC(=O)N(c2ccc(NC(=O)c3ccccc3I)cc2)c2ccc3ccccc3c2N1 [Compound B48, 5-[4-(2-iodobenzoylamino)phenyl]-1H-naphtho[1,2-b][1,4]diazepine-2,4(3H,5H)-dione] | significantly decreased | decreased in a dose-dependent manner | significant body temperature decrease-suppressing effect | significantly suppressed | significantly suppressed | – | – | – | – | – | – | – | – | – | –
2 | O=C1CC(=O)N(c2cccc(-c3noc(=S)[nH]3)c2)c2ccc3ccccc3c2N1.[Na] [Compound A17, 5-[3-(5-thioxo-4H-[1,2,4]oxadiazol-3-yl)phenyl]-1H-naphtho[1,2-b][1,4]diazepine-2,4(3H,5H)-dione sodium salt] | – | decreased in a dose-dependent manner | significant body temperature decrease-suppressing effect | – | – | significantly decreased | decreased in a dose-dependent manner | lower than 5% | significantly decreased | lower than 10% | > 60 | at least 35 minutes | suppressed | suppressed | suppressed
